Experimental data published in ChEMBL document CHEMBL3044814, “Seasonal changes in chemical composition of epicuticular waxes from the leaves of Baccharis linearis” (1999).
Values after ≈ are worked out from the molar mass of the structure shown.

How the values were obtained:
[1] = system: Artemia salina; assay: Toxicity against Artemia salina (brine shrimp); assay type: functional
[2] = system: Spodoptera littoralis; assay: Antifeedant activity against fifth-instar larvae of Spodoptera littoralis at 10 ug/cm'2 by disk-choice assay; assay type: functional

| SMILES | LC50 [1] [µg/mL] | FR50 [2] |
| --- | --- | --- |
| CC(=O)Oc1ccc(/C=C/C(=O)O)cc1CC=C(C)C | < 50 |  |
| CC(=O)OC/C=C(/CC[C@@]1(C)[C@H](C)CC[C@@]2(CO)C(COC(C)=O)=CCC[C@@H]21)COC(C)=O | > 100 | 0.99 |
| COc1cc(-c2oc3cc(O)cc(O)c3c(=O)c2OC)ccc1O [3,3'-O-DIMETHYLQUERCETIN] | ≤ 10 |  |
| COc1c(-c2ccc(O)c(O)c2)oc2cc(O)cc(O)c2c1=O [3-O-METHYLQUERCETIN] | 10 (≈ 31.6 µM) |  |
| C=C(COC(C)=O)C1Cc2cc(O)c(C(C)=O)cc2O1 (centres undefined) [ACETYLATED DIHYDROBENZOFURAN] | ≤ 10 | 0.75 |
| CC1(C)CC[C@]2(CO)CC[C@]3(C)C(=CC[C@@H]4[C@@]5(C)CC[C@H](O)C(C)(C)[C@@H]5CC[C@]43C)[C@@H]2C1 [ERYTHRODIOL] | 50 (≈ 113 µM) | 0.88 |
| COc1c(-c2ccc(O)cc2)oc2cc(O)cc(O)c2c1=O [ISOKAEMPFERIDE] | ≤ 10 |  |
| CCCC#CC#C/C=C/C(=O)OC [LACHNOPHYLLUM ESTER] | 5 (≈ 28.4 µM) | 0.31 |
| CC1(C)CC[C@]2(C(=O)O)CC[C@]3(C)C(=CC[C@@H]4[C@@]5(C)C[C@@H](O)[C@H](O)C(C)(C)[C@@H]5CC[C@]43C)[C@@H]2C1 [MASLINIC ACID] | 20.2 (≈ 42.7 µM) | 1.34 |
| CC1(C)CC[C@]2(C(=O)O)CC[C@]3(C)C(=CC[C@@H]4[C@@]5(C)CC[C@H](O)C(C)(C)[C@@H]5CC[C@]43C)[C@@H]2C1 [OLEANOLIC_ACID] | 10 (≈ 21.9 µM) | 1.34 |
| C=C1CC[C@@H]2[C@H]([C@H]3[C@H]1CC[C@]3(C)O)C2(C)C [SPATHULENOL] | < 3 |  |
| COC(=O)/C=C/c1ccc2c(c1)C=CC(C)(C)O2 [WERNERIACHROMENE] | < 3 | 0.2 |
